Data from EP4603105A1, “PHARMACEUTICAL COMPOSITION CONTAINING CYCLIC COMPOUND HAVING SELECTIVE KRAS INHIBITORY EFFECT AGAINST HRAS AND NRAS” (CHUGAI SEIYAKU KABUSHIKI KAISHA, priority 2022, dated 2024).
Where a SMILES comes first, the peptide text is derived from it. Bridges are numbered along the chain shown (N, C = ends). [ ]: non-standard residue; d: D form. The star is where a group is joined. hPhe(3-Cl-4-CF3) = N[C@@H](CCc1ccc(C(F)(F)F)c(Cl)c1)C(=O)O; NPrPhe(4-CF3) = CCCN[C@@H](Cc1ccc(C(F)(F)F)cc1)C(=O)O; NMeGly(cPent) = CN[C@H](C(=O)O)C1CCCC1; Pro(4,4-F2) = O=C(O)[C@@H]1CC(F)(F)CN1; NMeF = CN[C@@H](Cc1ccccc1)C(=O)O; NMeD = CN[C@@H](CC(=O)O)C(=O)O; NMeL = CN[C@@H](CC(C)C)C(=O)O; Pip = O=C(O)[C@@H]1CCCCN1; Morpholide = C1CN(*)CCO1; Ac5c = NC1(C(=O)O)CCCC1; Aze = O=C(O)[C@@H]1CCN1; Ac4c = NC1(C(=O)O)CCC1; Sar = CNCC(=O)O

Assays:
[1] = test system: human lung cancer strain NCI-H441; assay type: cell-based
How it was run: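 Readout: […] after the ATP-based reagent. Compound: serial dilutions in dimethyl sulfoxide.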

[2] = biological target: GDP-bound NRAS wild-type protein (Homo sapiens, UniProt P01111); experiment: Binding to NRAS by surface plasmon resonance (SPR), KD and KD ratio to KRAS
Chain of GDP-bound NRAS wild-type protein (P01111 whole entry): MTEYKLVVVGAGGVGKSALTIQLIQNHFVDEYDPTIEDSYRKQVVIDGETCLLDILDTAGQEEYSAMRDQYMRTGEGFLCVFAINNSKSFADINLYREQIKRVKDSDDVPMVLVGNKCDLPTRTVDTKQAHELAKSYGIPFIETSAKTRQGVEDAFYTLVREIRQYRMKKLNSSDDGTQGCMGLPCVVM
How it was run: (§1)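 GDP-bound biotin-Avi RAS captured at ~100–300 RU, 30°C, pH 7.4 HBS containing 10 µM GDP, 10 mM MgCl2, 1 mM DTT, 0.01% Tween 20 and 4% DMSO. KD by 1:1 fitting.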

HRAS wild-type protein = HRAS wild-type protein (Homo sapiens, UniProt P01112); experiment: Binding to HRAS by surface plasmon resonance (SPR), KD and KD ratio to KRAS
Chain of HRAS wild-type protein (P01112 whole entry): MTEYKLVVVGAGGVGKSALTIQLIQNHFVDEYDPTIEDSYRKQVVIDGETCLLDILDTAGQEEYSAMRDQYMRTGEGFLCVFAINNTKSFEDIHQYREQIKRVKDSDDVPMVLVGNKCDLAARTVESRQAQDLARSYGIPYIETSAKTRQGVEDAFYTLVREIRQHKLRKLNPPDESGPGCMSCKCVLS
How it was run: as §1

[3] = ratio of KD value for GDP-bound NRAS wild-type protein to KD value for KRAS (SPR)
[4] = ratio of KD value for HRAS wild-type protein to KD value for KRAS (SPR)
[5] = ratio of KD for GDP-bound NRAS wild-type protein to KD for KRAS
[6] = ratio of KD for HRAS wild-type protein to KD for KRAS

| IC50 [1] | Compound | NRAS /KRAS [2, 3] | HRAS /KRAS (HRAS wild-type protein; [4]) | NRAS /KRAS ([2]; ratio of the KD value with respect to GDP-bound NRAS wild-type protein to the KD value with respect to KRAS) | HRAS /KRAS (HRAS wild-type protein; ratio of the KD value with respect to HRAS wild-type protein to the KD value with respect to KRAS) | NRAS /KRAS [2, 5] | HRAS /KRAS (HRAS wild-type protein; [6]) |
| --- | --- | --- | --- | --- | --- | --- | --- |
| 2.5 nM | CCC[C@H]1C(=O)N[C@@H]([C@@H](C)CC)C(=O)N(C)CC(=O)N(C)[C@H]2C/C=C\CCN(C2=O)[C@@H](Cc2ccc(C(F)(F)F)cc2)C(=O)N(C)CC(=O)N[C@@H](CCc2cc(F)c(C(F)(F)F)c(F)c2)C(=O)N2C[C@@H](C)C[C@H]2C(=O)NC2(CC(C)(C)C2)C(=O)N(C)[C@@H](C2CCCC2)C(=O)N(C)[C@H](C(=O)N(C)C)CC(=O)N1C [PP1683] | A (a compound having 10 or more and less than 20 is denoted as A) | A (a compound having 10 or more and less than 20 is denoted as A) |  |  |  |  |
| 27.6 nM | CCC[C@@H]1C[C@H]2C(=O)NC3(CCC3)C(=O)N(C)[C@@H](C3CCCC3)C(=O)N(C)[C@H](C(=O)N(C)C)CC(=O)N(C)[C@@H](CC)C(=O)N[C@@H]([C@@H](C)CC)C(=O)N(C)CC(=O)N(C)[C@H]3C/C=C\CCN(C3=O)[C@@H](Cc3ccc(C)cc3)C(=O)N(C)CC(=O)N[C@@H](CCc3cc(F)c(C(F)(F)F)c(F)c3)C(=O)N2C1 [PP2233] |  |  | A (a compound having 10 or more and less than 20 is denoted as A) | A (a compound having 10 or more and less than 20 is denoted as A) |  |  |
| 147 nM | CCCN1C(=O)CN(C)C(=O)[C@@H]2CCN2C(=O)[C@H]([C@@H](C)CC)NC(=O)[C@H](CC(C)C)N(C)C(=O)C[C@@H](C(=O)N2CCOCC2)N(C)C(=O)[C@H](C2CCCC2)N(C)C(=O)C2(CCCC2)NC(=O)[C@@H]2CCCCN2C(=O)[C@H](CCc2ccc(C(F)(F)F)c(Cl)c2)NC(=O)CN(C)C(=O)[C@@H]1Cc1ccc(C(F)(F)F)cc1 [PP0311] ([NMeL]I[Aze][Sar][NPrPhe(4-CF3)][Sar][hPhe(3-Cl-4-CF3)][Pip][Ac5c][NMeGly(cPent)][NMeD]-Morpholide; lactam N-11) |  |  |  |  | B (a compound having 3 or more and less than 10 is denoted as B) | B (a compound having 3 or more and less than 10 is denoted as B) |
| 7.8 nM | CCC[C@H]1C(=O)N[C@@H]([C@@H](C)CC)C(=O)N2CCC[C@H]2C(=O)N(C)[C@H]2C/C=C\CCN(C2=O)[C@@H](Cc2ccc(C(F)(F)F)cc2)C(=O)N(C)CC(=O)N[C@@H](CCc2cc(F)c(C(F)(F)F)c(F)c2)C(=O)N2C[C@H](OCC)C[C@H]2C(=O)N(C)C2(CCC2)C(=O)N(C)[C@@H](C2CCCC2)C(=O)N(C)[C@H](C(=O)N2CCCC2)CC(=O)N1C [PP3116] |  |  |  |  | A (a compound having 10 or more and less than 20 is denoted as A) | A (a compound having 10 or more and less than 20 is denoted as A) |
| 74.2 nM | CCCN1C(=O)CN(C)C(=O)CN(C)C(=O)[C@H]([C@@H](C)CC)NC(=O)[C@H](CC(C)C)N(C)C(=O)C[C@@H](C(=O)N2CCOCC2)NC(=O)[C@H](C2CCCC2)N(C)C(=O)C2(CCC2)NC(=O)[C@@H]2CC(F)(F)CN2C(=O)[C@H](CCc2ccc(C(F)(F)F)c(Cl)c2)NC(=O)CN(C)C(=O)[C@@H]1Cc1ccc(C(F)(F)F)cc1 [PP0322] ([NMeL]I[Sar][Sar][NPrPhe(4-CF3)][Sar][hPhe(3-Cl-4-CF3)][Pro(4,4-F2)][Ac4c][NMeGly(cPent)]D-Morpholide; lactam N-11) |  |  |  |  | B (a compound having 3 or more and less than 10 is denoted as B) | C (A compound having a KD ratio of 0.1 or more and less than 3 is denoted as C) |
| 20.1 nM | CC[C@H](C)[C@@H]1NC(=O)[C@H](CC(C)C)N(C)C(=O)C[C@@H](C(=O)N2CCOCC2)N(C)C(=O)[C@H](C2CCCC2)N(C)C(=O)C2(CCCC2)NC(=O)[C@@H]2CCCN2C(=O)[C@H](CCc2ccc(C(F)(F)F)c(Cl)c2)NC(=O)CN(C)C(=O)[C@H](Cc2ccccc2)N(C)C(=O)CN(C)C(=O)CN(C)C1=O [PP0039] ([NMeL]I[Sar][Sar][NMeF][Sar][hPhe(3-Cl-4-CF3)]P[Ac5c][NMeGly(cPent)][NMeD]-Morpholide; lactam N-11) |  |  |  |  | C (A compound having a KD ratio of 0.1 or more and less than 3 is denoted as C) | C (A compound having a KD ratio of 0.1 or more and less than 3 is denoted as C) |
| 31.6 nM | CCO[C@@H]1C[C@H]2C(=O)NC3(CC(C)(C)C3)C(=O)N(C)[C@@H](C(CC)CC)C(=O)N3CCC[C@@H]3CC(=O)N(C)[C@@H](CC)C(=O)N[C@@H]([C@@H](C)CC)C(=O)N(C)CC(=O)N(C)[C@H]3C/C=C\CCN(C3=O)[C@@H](Cc3ccc(C(F)(F)F)cc3)C(=O)N(C)CC(=O)N[C@@H](CCc3cc(F)c(C(F)(F)F)c(F)c3)C(=O)N2C1 [PP1605] | A (a compound having 10 or more and less than 20 is denoted as A) | A (a compound having 10 or more and less than 20 is denoted as A) |  |  |  |  |
| 12.6 nM | CCO[C@@H]1C[C@H]2C(=O)NC3(CCC3)C(=O)N(C)[C@@H](C3CCCC3)C(=O)N(C)[C@H](C(=O)N3CCCC3)CC(=O)N(C)[C@H]3CCCCC/C=C/c4ccc(cc4)C[C@@H](C(=O)N(C)CC(=O)N[C@@H](CCc4ccc(Cl)c(Cl)c4)C(=O)N2C1)N1CC/C=C\C[C@@H](C1=O)N(C)C(=O)CN(C)C(=O)[C@H]([C@@H](C)CC)NC3=O [PP3049] |  |  |  |  | AA (a compound having 20 or more is denoted as AA) | A (a compound having 10 or more and less than 20 is denoted as A) |
| 13.4 nM | CCO[C@@H]1C[C@H]2C(=O)NC3(CC(C)(C)C3)C(=O)N(C)[C@@H](C3CCCC3)C(=O)N(C)[C@H](C(=O)N(C)C)CC(=O)N(CC)[C@@H](CC(C)C)C(=O)N[C@@H]([C@@H](C)CC)C(=O)NCC(=O)N(C)[C@H]3C/C=C\CCN(C3=O)[C@@H](Cc3ccc(C(F)(F)F)cc3)C(=O)N(C)CC(=O)N[C@@H](CCc3cc(F)c(C(F)(F)F)c(F)c3)C(=O)N2C1 [PP1772] | B (a compound having 3 or more and less than 10 is denoted as B) | B (a compound having 3 or more and less than 10 is denoted as B) |  |  |  |  |
| 17.6 nM | CCCN1C(=O)C[C@@H](C(=O)N(C)C)N(C)C(=O)[C@H](C2CCCC2)N(C)C(=O)C2(CCC2)NC(=O)[C@@H]2C[C@@H](OCC)CN2C(=O)[C@H](CCc2cc(F)c(C(F)(F)F)c(F)c2)NC(=O)CN(C)C(=O)[C@H](Cc2ccc(C(F)(F)F)cc2)N2CC/C=C\C[C@@H](C2=O)N(C)C(=O)CNC(=O)[C@H]([C@@H](C)CC)NC(=O)[C@@H]1CC(C)C [PP1826] | A (a compound having 10 or more and less than 20 is denoted as A) | A (a compound having 10 or more and less than 20 is denoted as A) |  |  |  |  |
| 4.3 nM | CCCC[C@H]1C(=O)N[C@@H]([C@@H](C)CC)C(=O)N(C)CC(=O)N(C)[C@H]2C/C=C\CCN(C2=O)[C@@H](Cc2ccc(C(F)(F)F)cc2)C(=O)N(C)CC(=O)N[C@@H](CCc2cc(F)c(C(F)(F)F)c(F)c2)C(=O)N2CC(F)(F)C[C@H]2C(=O)NC2(CC(C)(C)C2)C(=O)N(C)[C@@H](C2CCCC2)C(=O)N(C)[C@H](C(=O)N(C)C)CC(=O)N1C [PP1714] | A (a compound having 10 or more and less than 20 is denoted as A) | A (a compound having 10 or more and less than 20 is denoted as A) |  |  |  |  |

| Compound | IC50 [1] | NRAS /KRAS [2, 3] | HRAS /KRAS (HRAS wild-type protein; [4]) | NRAS /KRAS ([2]; ratio of the KD value with respect to GDP-bound NRAS wild-type protein to the KD value with respect to KRAS) | HRAS /KRAS (HRAS wild-type protein; ratio of the KD value with respect to HRAS wild-type protein to the KD value with respect to KRAS) | NRAS /KRAS [2, 5] | HRAS /KRAS (HRAS wild-type protein; [6]) |
| --- | --- | --- | --- | --- | --- | --- | --- |
| CCO[C@@H]1C[C@H]2C(=O)NC3(CC(C)(C)C3)C(=O)N(C)[C@@H](C3CCCC3)C(=O)N(C)[C@H](C(=O)N(C)C)CC(=O)N(C)[C@@H](CC(C)C)C(=O)N[C@@H]([C@@H](C)CC)C(=O)N(C)CC(=O)N(C)[C@H]3C/C=C\CCN(C3=O)[C@@H](Cc3ccc(C4CC4)cc3)C(=O)N(C)CC(=O)N[C@@H](CCc3ccc(C(F)(F)F)c(OC)c3)C(=O)N2C1 [PP2691] | 3.5 nM |  |  |  |  | AA (a compound having 20 or more is denoted as AA) | A (a compound having 10 or more and less than 20 is denoted as A) |
